Measured values reported in patent US9381208B2, “Structure and use of 5′ phosphate oligonucleotides” (Rheinische Friedrich-Wilhelms-Universität, priority 2006, dated 2016).
{ppp} = triphosphate group; {Biotin} = biotin label U

How the values were obtained:
RIG-I [1] = molecular target: T1, RIG-I (Homo sapiens, UniProt O95786); assay: Ligand binding studies: pull-down of RIG-I by biotinylated RNA; set-up: HEK 293 cells were transiently transfected with full length RIG-I, RIG-I CARD2 or RIG-I ΔHELIc; expressed in transfected cells; host or cells: HEK 293 (whole cell lysate); settings: whole cell lysate of HEK 293 cells overexpressing full length RIG-I
T1 sequence (O95786 1-925): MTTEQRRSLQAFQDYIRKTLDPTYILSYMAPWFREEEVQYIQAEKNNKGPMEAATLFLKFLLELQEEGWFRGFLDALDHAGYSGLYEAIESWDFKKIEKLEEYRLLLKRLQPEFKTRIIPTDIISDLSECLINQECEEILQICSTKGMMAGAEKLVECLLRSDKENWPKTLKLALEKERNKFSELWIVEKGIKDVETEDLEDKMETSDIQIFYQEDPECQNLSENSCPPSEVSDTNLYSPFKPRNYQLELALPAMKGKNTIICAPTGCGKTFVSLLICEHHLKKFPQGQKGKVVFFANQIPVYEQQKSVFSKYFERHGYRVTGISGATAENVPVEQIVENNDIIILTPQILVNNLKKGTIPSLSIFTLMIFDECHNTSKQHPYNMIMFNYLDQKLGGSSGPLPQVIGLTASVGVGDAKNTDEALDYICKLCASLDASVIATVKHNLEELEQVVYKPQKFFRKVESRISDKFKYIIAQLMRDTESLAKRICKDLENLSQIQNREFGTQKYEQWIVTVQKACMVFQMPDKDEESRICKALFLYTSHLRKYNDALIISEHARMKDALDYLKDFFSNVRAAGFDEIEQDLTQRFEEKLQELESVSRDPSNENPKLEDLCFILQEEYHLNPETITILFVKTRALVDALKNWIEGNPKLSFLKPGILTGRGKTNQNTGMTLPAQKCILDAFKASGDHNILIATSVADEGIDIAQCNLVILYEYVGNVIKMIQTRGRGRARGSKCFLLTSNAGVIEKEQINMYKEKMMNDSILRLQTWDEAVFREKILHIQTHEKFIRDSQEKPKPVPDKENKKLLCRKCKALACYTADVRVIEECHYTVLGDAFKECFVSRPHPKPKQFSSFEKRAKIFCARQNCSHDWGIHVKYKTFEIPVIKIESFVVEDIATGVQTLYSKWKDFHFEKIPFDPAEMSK
Description: (§1) Cell lysates were prepared according to Meister et al. (G. Meister et al., Mol Cell 15, 185 (Jul. 23, 2004)) with minor modifications. HEK 293 cells were transfected using high molecular weight (25 kDa) polyethylenimine (PEI; Sigma, 40.872-7). At a confluency of 80-90%, cells were transfected with a PEI:DNA ratio of 1.5:1. 24-36 hours after transfection cells were harvested and the cell pellet was resuspended in five pellet volumes of 10 mM KCl, 1.5 mM MgCl2, 0.5 mM dithiothreitol, 10 mM HEPES-NaOH (pH 7.9), 0.5 mM PMSF and incubated for ten minutes on ice. Subsequently cells were washed and the cell pellet was resuspended in two pellet volumes of the buffer described above and homogenized by douncing. The cell nuclei were removed from the cell lysate by centrifugation at 2.000 g for ten minutes. The supernatant was transferred into microcentrifuge tubes and cleared further by centrifugation at 2.000 g for ten minutes and further centrifugation for 30 minutes at 20.000 g to obtain the cytoplasmic extract. The concentration of KCl of the extract was subsequently raised to 100 mM by addition of 2 M KCl and glycerol was added to a percentage of 10%. For purification of FLAG-tagged RIG-IC complexes, cytoplasmic extracts were incubated in FLAG M2 agarose beads (Sigma). FLAG M2 agarose beads were washed once with 0.1 M glycine (pH 3.5) and equilibrated by washing with 1 M Tris-HCl (pH 8.0). […]

PBMC = assay: IFN-α induction in the presence of chloroquine; format: cell-based, human
PDC = assay: IFN-α production in human PDC (ELISA); format: cell-based; settings: 24 hours
Description: Human PBMC were prepared from whole blood donated by young healthy donors by Ficoll-Hypaque density gradient centrifugation (Biochrom, Berlin, Germany). PDC were isolated by MACS using the blood dendritic cell Ag (BCDA)-4 dendritic cell isolation kit from Miltenyi Biotec (Bergisch-Gladbach, Germany). Briefly, PDC were labelled with anti-BDCA-4 Ab coupled to colloidal paramagnetic microbeads and passed through a magnetic separation column twice (LS column, then MS column; Miltenyi Biotec). The purity of isolated PDC (lineage-negative, MHC-II-positive and CD123-positive cells) was above 95%. Before isolation of monocytes, PDC were depleted by MACS (LD column; Miltenyi Biotec) and then monocytes were isolated using the monocyte isolation kit II (Miltenyi Biotec). […] PDC cultures were additionally supplemented with 10 ng/ml IL-3 (R&D Systems). […] Vero (African green monkey kidney) and HEK 293T (human embryonic kidney) cells were maintained in Dulbecco's modified Eagle's medium supplemented with antibiotics and 5% or 10% foetal calf serum, respectively. BSR cells were propagated in Glasgow minimal essential medium supplemented with 10% newborn calf serum, phosphate broth, amino acids and antibiotics.
Human IFN-α was assessed in cell culture supernatants using the IFN-α module set (Bender MedSystems, Graz, Austria). The murine IP-10 ELISA was from Biosource (Solingen, Germany), the murine IFN-[…] ELISA was from PBL Biomedical Laboratories (Piscataway, USA). All ELISA procedures were performed, according to manufacturers' recommendations.

human primary monocytes = assay: IFN-α production in human primary monocytes transfected with RNA (ELISA); format: cell-based
[2] = Blood cell counts (leucocytes, platelets) after injection; format: in vivo, C57BL/6 mice; settings: 50 μg, 48 hours
Description: (b & c) C57BL/6 mice were injected with 50 μg 3p-2.2 complexed with jetPEI™. Blood was collected after 48 h and processed as EDTA […] for measurement of leucocytes (WBC) and platelets. Blood cell counts were performed at the Central Laboratory of the Department of Internal Medicine, University of Munich at the indicated time point (P**<0.01 between the platelet count of 3p-2.2 and CpG). Data are shown as means±SEM of 2 independent experiments.

[3] = system: B16 melanoma lung metastases; assay: B16 melanoma lung metastases model; format: in vivo; settings: C57BL/6 mice, 50 μg complexed with jetPEI intravenously on day 3, 6 and 9, day 14, compared with PolyA
Description: (a) Therapeutic regimen: Mice were challenged with 4×10^5 B16 melanoma cells intravenously to experimentally induce lung metastases on day 0. Mice were treated intravenously with the indicated nucleic acid complexed to jetPEI™ on day 3, 6 and 9 as indicated. 14 days after challenge, the number of macroscopically visible melanoma metastases on the surface of the lungs was counted with the help of a dissecting microscope or the lung weight was calculated.
(b) Groups of five C57BL/6 mice were challenged with 4×10^5 B16 and treated as described. Mice were treated intravenously on day 3, 6 and 9 with 50 μg of OH-2.2, 50 μg 3p-2.2, 50 μg 3p-GC (a nonspecific double-stranded 3p-RNA) or 50 μg CpG oligonucleotide ligand, each complexed with jetPEI™. Control groups received 100 μl of Glucose 5% or 50 μg of PolyA complexed with jetPEI™. Tumor growth was assessed after 14 days by measuring the weight of the lungs. Shown are lung weights of five individual mice. The mean lung weight is indicated by a column. […]
For the induction of lung metastases we injected 4×10^5 B16 melanoma cells into the tail vein of the indicated mice. […] 14 days after challenge the number of macroscopically visible melanoma metastases on the surface of the lungs was counted with the help of a dissecting microscope or, in case of massive tumor load, lung weight was determined. […]

RIG-I [4] = assay: Ligand binding studies: pull-down of RIG-I by biotinylated RNA; settings: CARD2 and RIG-I Δ Helicase_C
Description: as §1

RIG-I [5] = molecular target: T1, RIG-I; assay: pIFN-beta-Luc reporter assay in HEK 293 cells transfected with RIG-I; format: cell-based; set-up: Only HEK 293 cells expressing full length RIG-I responded to 5′triphosphate RNA; FLAG; expressed in transfected cells; host or cells: HEK 293; settings: HEK 293 cells expressing full length RIG-I, 200 ng, 24 hours
Caspase-1 = Caspase-1 activation in B16 cells (western blot); format: cell-based, murine; settings: 24 hours
Description: (e) B16 cells were incubated with control siRNA, 3p-2.2 and poly(I:C) for 24 hours and assessed for caspase-1 activity via immunoblotting. α-Tublin served as loading control. One representative experiment of three is shown.
(§2) For Western blotting, samples were separated by SDS-PAGE and transferred to a nitrocellulose membrane (Amersham-Biosciences, UK) by semi-dry electroblotting. As primary antibody polyclonal rat anti-RIG-I (kind gift of Dr. Kremer), polyclonal rabbit anti-Bcl-2 (Santa Cruz, sc-7382) and rabbit anti-caspase-1 (Santa Cruz, sc-7148) antibody were used. As secondary antibody, peroxidase-conjugated anti-mouse or anti-rabbit antibody (Amersham-Biosciences) were used. Bound antibodies were visualized by enhanced chemiluminescence system (ECL) according to the manufacturer's protocol (Amersham-Biosciences).

RIG-I [6] = assay: Expression of endogenous RIG-I in B16 cells (western blot); format: cell-based, murine; settings: 6 hours
Description: (b) To determine the endogenous expression of RIG-I, B16 cells were stimulated with 3p-2.2 (1.2 μg/well) and murine IFN-β (1000 U/ml). After 6 hours cells were lysed and analyzed for endogenous expression of RIG-I by Western Blot. HEK293 cells overexpressing full-length RIG-I served as positive control. One representative experiment of two is shown.
as §2

5′-pppGGGAGACAGGCACCACACACACACACACUUU-3′ [tri-G-AC-U]
pull-down of full length RIG-I (RIG-I [1]): did not immunoprecipitate RIG-I

5′-ggGGGACGATCGTCgggggG-3′ [CpG-A ODN 2216, reference compound]
effect of increasing concentrations of chloroquine on IFN-α induction (PBMC): inhibited IFN-α induction | IFN-α production in PDC (PDC): induce IFN-α in PDC | IFN-α production in monocytes (human primary monocytes; 200 ng RNA transfected, 24 hours, ELISA): failed to produce IFN-α | IFN-α production with chloroquine (human primary monocytes; isolated monocytes): inactive

5′-TCCATGACGTTCCTGACGTT-3′ [CpG 1826]
thrombocytopenia [2]: more apparent | lung metastases [3]: significant reduction of lung metastases, but to a lesser extent than 3p-2.2

tri-G-AC-U-Bio: biotinylated 5′ triphosphate oligonucleotide, SEQ ID NO: 349, 3′ terminal biotinylated U (GGGAGACAGGCACCACACACACACACACUUU; RNA, 5' {ppp}, 3' {Biotin}, backbone not given here; biotin attached to the 3'-terminal U)
pull-down of truncated versions of RIG-I (RIG-I [4]): not very effective at pulling down | pull-down of full length RIG-I (RIG-I [1]): able to immunoprecipitate full length RIG-I

Polyinosinic:polycytidylic acid [poly(I:C)]
IFN-β promoter reporter expression (RIG-I [5]): did not respond | cleavage of procaspase-1 (Caspase-1): increased cleavage of procaspase-1 to active subunit p10

B1: IFN-β: Recombinant murine IFNβ (protein, UniProt P01575 22-182, looked up)
Interferon beta: INYKQLQLQERTNIRKCQELLEQLNGKINLTYRADFKIPMEMTEKMQKSYTAFAIQEMLQNVFLVFRNNFSSTGWNETIVVRLLDELHQQTVFLKTVLEEKQEERLTWEMSSTALHLKSYYWRVQRYLKLMKYNSYAWMVVRAEIFRNFLIIRRLTRNFQN
RIG-I-expression (RIG-I [6]): strongly upregulated
